Consider 18 molecules from patent publication US5459143A, “N,N-disubstituted piperazines” (Bayer Aktiengesellschaft, priority 1993, dated 1995).

Assay [1] has as its system Lewis rats. The assay is described as follows: Adjuvant arthritis model in the rat. Format: in vivo. The conditions noted are these: Freund's adjuvant arthritis, malleolus diameter day 16 vs day 0, dosing on days 0, 1, 2, 5, 7, 9, 12 and 14. As to the method: Adjuvant arthritis model in the rat
Freund's adjuvant (FA) is prepared by addition of 10 mg/ml of heat-killed Mycobacterium butyricum to extra-heavy mineral oil. Lewis rats receive a 0.1 ml injection of FA (1 mg/animal) subcutaneously in the right hind paw. An acute inflammation takes place there, which is characterized by reddening, edema and a predominant neutrophilic cell infiltration (primary reaction). Tumescent areas in the treated paw on day 5 are followed between day 10-12 by an increase in the swelling (chronic inflammatory reaction) and the occurrence of a swelling in the opposite untreated paw (secondary immune response).
The cell infiltration of the chronic inflammation and the second immune response are mainly mononuclear, which indicates the presence of T-cell mediated immunity. The animals are observed daily, and the swelling is measured in millimeters on days 12 and 16 using a hand-adjustable micrometer. The swelling reaches its peak on the 16th day, on which the animals are sacrificed and tissue samples are taken for histological evaluation.
The extent of the swelling is determined by calculation of the greatest difference in the malleolus diameter between the 16th and the 0th day.
The animals receive the compounds according to the invention in a suspension of 5% polyethylene glycol and 0.5% Tween 80 in phosphate buffer solution p.o. or i.p. on days 0, 1, 2, 5, 7, 9, 12 and 14 [cf. for this purpose L. Sokoloff, 1984, Int. Rev. Exp. Pathol. 26, 107; M. E. J. Bittingham et al., 1989, J. Exp. Med. 171, 339; K. M. Connolly et al., 1989, Agents and Actions 27, 328].

In assay [2] the test system is monocyte-free human T cells. The assay is described as follows: Inhibition of 5-HT-dependent T cell proliferation. Format: cell-based. The conditions noted are these: PWM (1:200) and 5-HT (100 μM) stimulated T cells, 3H-thymidine incorporation on day 7, tested at 33 μM-0.1 μM. The source says: The in vitro activity of the compounds according to the invention results from their capability to inhibit T cell proliferation, which is previously stimulated by serotonin.
Inhibition of 5-HT-dependent T cell proliferation
Peripheral mononuclear blood cells (PBMC) are obtained from the buffy coat of the blood of healthy subjects. After isolation by means of isolymph gradients (Pharmacia), the PBMC are washed twice and used directly. Purified T cells are obtained by E rosette formation with sheep erythrocytes [cf. Blue, M. -L., J. F. Daley, H. Levine, K. A. Craig and S. F. Schlossmann, 1986, Biosynthesis and surface expression of T8 by peripheral blood T4+ cells in vitro, J. Immunol. 137, 1202]. Monocytes are partially removed by adhesion to tissue culture plates or flasks. PBMC, T cells or purified T cells (depleted in monocytes) at 5×10^5 /ml, 100 μl/well are cultured in RPMI 1640 medium with 10% fetal calf serum (GIBCO) and L-glutamine in 96-well microculture plates (Becton-Dickinson) under a 5% CO2 atmosphere at 37° C. for 7 days. The cultures are treated with 1 μCi of ^3 H-thymidine for 6 h on the 7th day and collected on filter paper, and the incorporated radioactivity is determined by means of liquid scintillation counting.
The test substances are dissolved in 10 mM HCl in order to achieve a final concentration of 1 mM in each case. The compounds are diluted serially 3× with medium in order to obtain a final concentration between 33 μM-0.1 μM. PWM (1:200, pokeweed mitogen) and 5-HT (100 μM, serotonin), which contain the test substances, are added to monocyte-free human T cells. The positive control (maximum proliferation) is obtained from cultures containing T cells, PWM and 5-HT. The negative control (minimal proliferation) is obtained from cultures containing T cells and PWM without 5-HT. The inhibitory activity of the test substances is expressed as the IC50 in μM.

Molecules are shown by their SMILES.

On to `CC(C)(C)c1ccc(CN2CCN(CCCN3C(=O)C4C5c6ccccc6C(c6ccccc65)C4C3=O)CC2)cc1` (centres unmarked) [Example 6], for which the “Inhibition of the swelling in % after administration of 10 mg/kg i.p.” value in assay [1] is 24%. The same molecule had an IC50 in assay [2] of 3000 nM.

On to `FC(F)(F)c1ccccc1CCN1CCN(CCCN2CC3C4c5ccccc5C(c5ccccc54)C3C2)CC1` (centres unmarked) [Example 16], for which the “Inhibition of the swelling in % after administration of 10 mg/kg i.p.” value in assay [1] worked out at 13%. This molecule showed an IC50 in assay [2] of 5000 nM.

For the molecule `c1ccc(C(c2ccccc2)N2CCN(CCCN3CC4C5c6ccccc6C(c6ccccc65)C4C3)CC2)cc1` (centres unmarked) [Example 21], in assay [1], the “Inhibition of the swelling in % after administration of 10 mg/kg i.p.” value is 0.5%. In assay [2], the IC50 stood at 500 nM. As to `O=C1C2C3c4ccccc4C(c4ccccc43)C2C(=O)N1CCCN1CCN(C(c2ccc(F)cc2)c2ccc(F)cc2)CC1` (centres unmarked) [Example 1], in assay [2], the IC50 was more than 10000 nM. The molecule `Fc1ccc(C(CCCN2CCN(CCCN3CC4C5c6ccccc6C(c6ccccc65)C4C3)CC2)c2ccc(F)cc2)cc1` (centres unmarked) [Example 23] had an IC50 in assay [2] of 100 nM.

`Clc1ccc(C(c2ccccc2)N2CCN(CCCN3CC4C5c6ccccc6C(c6ccccc65)C4C3)CC2)cc1` (centres unmarked) [Example 26]: in assay [2], the half-inhibitory concentration (IC50) is 1000 nM.

As to `Fc1ccc(C(c2ccc(F)cc2)N2CCN(CCCN3CC4C5c6ccccc6C(c6ccccc65)C4C3)CC2)cc1` (centres unmarked) [Example 13], the “Inhibition of the swelling in % after administration of 10 mg/kg i.p.” value in assay [1] is reported as 2%.

On to `O=C1C2C3c4ccccc4C(c4ccccc43)C2C(=O)N1CCCN1CCN(C(c2ccccc2)c2ccc(Cl)cc2)CC1` (centres unmarked) [Example 8], for which, in assay [2], the IC50 is 50000 nM. Molecule `O=C1C2C3c4ccccc4C(c4ccccc43)C2C(=O)N1CCCN1CCN(c2ncccn2)CC1` (centres unmarked) [Example 3] returned an IC50 in assay [2] of more than 10000 nM. Take `CC12c3ccccc3C(c3ccccc31)C1CN(CCCN3CCN(C(c4ccccc4)c4ccccc4)CC3)CC12` (centres unmarked) [Example 20]: the “Inhibition of the swelling in % after administration of 10 mg/kg i.p.” value in assay [1] came out at 79%. This molecule also came in with a concentration for half-maximal inhibition (IC50) in assay [2] of 500 nM. As for `O=C1C2C3c4ccccc4C(c4ccccc43)C2C(=O)N1CCCN1CCN(C(c2ccccc2)c2ccccc2)CC1` (centres unmarked) [Example 4], in assay [2], the IC50 is more than 10000 nM. In turn, `c1cnc(N2CCN(CCCN3CC4C5c6ccccc6C(c6ccccc65)C4C3)CC2)nc1` (centres unmarked) [Example 15] returned an IC50 in assay [2] of 2000 nM. `O=C1C2C3c4ccccc4C(c4ccccc43)C2C(=O)N1CCCN1CCN(CCc2ccccc2C(F)(F)F)CC1` (centres unmarked) [Example 5]: the “Inhibition of the swelling in % after administration of 10 mg/kg i.p.” value in assay [1] was found to be 24%. This molecule also registered a 50% inhibitory concentration (IC50) in assay [2] of 2000 nM. The molecule `c1ccc2c(c1)C1c3ccccc3C2C2CN(CCCN3CCN(C4CCCC4)CC3)CC12` (centres unmarked) [Example 24] registered an IC50 in assay [2] of 6000 nM. In assay [2], `c1ccc2c(c1)C1c3ccccc3C2C2CN(CCCN3CCN(C4CCCCCC4)CC3)CC12` (centres unmarked) [Example 19] registered a concentration for half-maximal inhibition (IC50) of 5000 nM. Molecule `O=C1C2C3c4ccccc4C(c4ccccc43)C2C(=O)N1CCCN1CCN(C2CCCC2)CC1` (centres unmarked) [Example 10] displayed an IC50 in assay [2] of 30000 nM.

In assay [2], `c1cnc(N2CCN(CCCCN3CC4C5c6ccccc6C(c6ccccc65)C4C3)CC2)nc1` (centres unmarked) [Example 17] registered an IC50 of more than 10000 nM. With `CC(C)(C)c1ccc(CN2CCN(CCCN3CC4C5c6ccccc6C(c6ccccc65)C4C3)CC2)cc1` (centres unmarked) [Example 18], the midpoint of inhibition in assay [2], the IC50, lay at 2000 nM.
